These compounds were tested against T1, ERAP1 (Homo sapiens, UniProt Q9NZ08) (assay: ERAP1 mediated hydrolysis of an amide substrate measured in a biochemical system (10-mer inhibition assay)). Settings: purified ERAP1(37-941)-10His; 10-mer substrate; 23° C. for 1 h; excitation 279 nm, emission 355 nm; read-out: IC50 vs Decapeptide WRVYEKC(Dnp)ALK-acid (where Dnp is Dinitrophenyl maleimide) (10-mer).
T1 construct: Purified ERAP1(37-941)-10His (ERAP1)
T1 sequence (Q9NZ08 37-941): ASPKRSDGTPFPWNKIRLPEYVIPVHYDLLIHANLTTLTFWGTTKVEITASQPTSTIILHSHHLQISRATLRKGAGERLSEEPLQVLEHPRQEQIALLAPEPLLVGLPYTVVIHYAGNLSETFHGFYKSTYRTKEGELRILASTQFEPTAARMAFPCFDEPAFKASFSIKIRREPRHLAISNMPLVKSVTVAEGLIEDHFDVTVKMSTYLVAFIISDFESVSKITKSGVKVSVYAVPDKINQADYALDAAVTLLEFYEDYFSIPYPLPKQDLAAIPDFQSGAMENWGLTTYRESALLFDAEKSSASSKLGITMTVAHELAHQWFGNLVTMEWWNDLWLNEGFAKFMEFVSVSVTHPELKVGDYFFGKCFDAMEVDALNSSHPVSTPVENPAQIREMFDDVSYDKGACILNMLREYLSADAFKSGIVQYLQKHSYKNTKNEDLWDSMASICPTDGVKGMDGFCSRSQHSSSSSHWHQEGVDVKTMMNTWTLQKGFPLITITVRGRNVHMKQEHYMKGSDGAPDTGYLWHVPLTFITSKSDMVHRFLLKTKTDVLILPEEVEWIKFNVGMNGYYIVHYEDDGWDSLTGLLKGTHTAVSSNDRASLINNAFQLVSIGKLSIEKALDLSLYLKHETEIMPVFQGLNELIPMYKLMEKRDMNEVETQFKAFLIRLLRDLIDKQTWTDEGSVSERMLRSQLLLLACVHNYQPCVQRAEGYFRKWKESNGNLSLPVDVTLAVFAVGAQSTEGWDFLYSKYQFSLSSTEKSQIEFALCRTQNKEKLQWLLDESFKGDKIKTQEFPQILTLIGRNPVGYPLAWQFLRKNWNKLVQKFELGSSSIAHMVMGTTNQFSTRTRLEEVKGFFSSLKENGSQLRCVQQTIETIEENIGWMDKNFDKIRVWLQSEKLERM
Procedure, shortened: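 Purified ERAP1(37-941)-10His in 25 mM Bis-tris propane, 0.05% HPMC, pH 7.75, with compound, then 100 μM 10-mer WRVYEKC(Dnp)ALK or 240 μM L-AMC added (stock concentrations before 1:1 mixing), 1 h at 23 °C. Fluorescence read at ex 279/em 355 nm (10-mer) or ex 365/em 442 nm (L-AMC); IC50 from 4-parameter fit.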
In the case of `N#Cc1cc(NS(=O)(=O)c2cc(C(=O)O)ccc2C2CC2)c(O[C@H]2C[C@@H](F)C2)cc1Cl` [Example 71, 3-(N-(4-chloro-5-cyano-2-(cis-3-fluorocyclobutoxy)phenyl)sulfamoyl)-4-cyclopropylbenzoic acid], the IC50 is reported as < 1 nM. `COC1CCC1Oc1cc(Cl)c(C#N)cc1NS(=O)(=O)c1cc(C(=O)O)ccc1C1CC1` (racemic) [Example 119, 3-(N-(4-chloro-5-cyano-2-(trans-2-methoxycyclobutoxy)phenyl)sulfamoyl)-4-cyclopropylbenzoic acid] was tested, and the IC50 was < 1 nM. In the case of `N#Cc1cc(NS(=O)(=O)c2c(C3CC3)ccc(C(=O)O)c2F)c(OC2CCCC2)cc1Cl` [Example 67, 3-(N-(4-chloro-5-cyano-2-(cyclopentyloxy)phenyl)sulfamoyl)-4-cyclopropyl-2-fluorobenzoic acid], the IC50 is reported as > 5 nM. For `Cc1cc(C2CC2)c(S(=O)(=O)Nc2cc(C#N)c(Cl)cc2OC2CCCC2)cc1C(=O)O` [Example 26, 5-(N-(4-chloro-5-cyano-2-(cyclopentyloxy)phenyl)sulfamoyl)-4-cyclopropyl-2-methylbenzoic acid], the IC50 was 1 to 5 nM. With `N#Cc1cc(NS(=O)(=O)c2cc(C(=O)O)ccc2C2CC2)c(OC2CCC2C2CC2)cc1Cl` (mixture of isomers) [Example 108, 3-(N-(4-chloro-5-cyano-2-(2-cyclopropylcyclobutoxy)-phenyl)sulfamoyl)-4-cyclopropylbenzoic acid] the IC50 was < 1 nM. `N#Cc1cc(NS(=O)(=O)c2cc(C(=O)O)ccc2C2CC2)c(O[C@H]2C[C@@H](O)C2)cc1Cl` [Example 112, 3-(N-(4-chloro-5-cyano-2-(cis-3-hydroxycyclobutoxy)phenyl)sulfamoyl)-4-cyclopropylbenzoic acid] was tested, and the IC50 was > 5 nM. Compound `CC1(C)CCC1Oc1cc(Cl)c(C#N)cc1NS(=O)(=O)c1cc(C(=O)O)ccc1C1CC1` (single isomer, unassigned) [Example 93, 3-(N-(4-chloro-5-cyano-2-(2,2-dimethylcyclobutoxy)phenyl)-sulfamoyl)-4-cyclopropylbenzoic acid] has an IC50 of 1 to 5 nM. `N#Cc1cc(NS(=O)(=O)c2cc(C(=O)O)ccc2C2CC2)c(O[C@@H]2CCOC2)cc1Cl` [Example 48, (R)-3-(N-(4-chloro-5-cyano-2-((tetrahydrofuran-3-yl)oxy)phenyl)sulfamoyl)-4-cyclopropylbenzoic acid] was tested, and the IC50 was < 1 nM. `CC1CC(Oc2cc(Cl)c(C#N)cc2NS(=O)(=O)c2cc(C(=O)O)ccc2C2CC2)C1` (mixture of isomers) [Example 88, 3-(N-(4-chloro-5-cyano-2-(3-methylcyclobutoxy)phenyl)sulfamoyl)-4-cyclopropylbenzoic acid] was tested, and the IC50 was < 1 nM. For `CC1(C)CC(Oc2cc(Cl)c(C#N)cc2NS(=O)(=O)c2cc(C(=O)O)ccc2C2CC2)C1` [Example 33, 3-(N-(4-chloro-5-cyano-2-(3,3-dimethylcyclobutoxy)phenyl)sulfamoyl)-4-cyclopropylbenzoic acid], the IC50 was < 1 nM. `N#Cc1cc(NS(=O)(=O)c2cc(C(=O)O)ccc2C2CC2)c(OCC23COC(C2)C3)cc1Cl` [Example 65, 3-(N-(2-((2-oxabicyclo[2.1.1]hexan-4-yl)methoxy)-4-chloro-5-cyanophenyl)sulfamoyl)-4-cyclopropylbenzoic acid] showed an IC50 of 1 to 5 nM. Work on `N#Cc1cc(NS(=O)(=O)c2cc(C(=O)O)ccc2C2CC2)c(OC2CC3(CCC3)C2)cc1Cl` [Example 39, 3-(N-(4-chloro-5-cyano-2-(spiro[3.3]heptan-2-yloxy)phenyl)sulfamoyl)-4-cyclopropylbenzoic acid] yielded an IC50 of 1 to 5 nM. With `N#Cc1cc(NS(=O)(=O)c2cc(C(=O)O)ccc2C2CC2)c(OC2CCC23CC3)cc1Cl` (single isomer, unassigned) [Example 107, 3-(N-(4-chloro-5-cyano-2-(spiro[2.3]hexan-4-yloxy)phenyl)-sulfamoyl)-4-cyclopropylbenzoic acid] the IC50 was < 1 nM. In the case of `N#Cc1cc(NS(=O)(=O)c2cc(C(=O)O)ccc2C2CC2)c(OCC2(C#N)CCC2)cc1Cl` [Example 82, 3-(N-(4-chloro-5-cyano-2-((1-cyanocyclobutyl)methoxy)phenyl)sulfamoyl)-4-cyclopropylbenzoic acid], the IC50 is reported as < 1 nM. For `COC1CCC1Oc1cc(Cl)c(C#N)cc1NS(=O)(=O)c1cc(C(=O)O)ccc1C1CC1` (single isomer, unassigned) [Example 144, 3-(N-(4-chloro-5-cyano-2-(cis-2-methoxycyclobutoxy)phenyl)sulfamoyl)-4-cyclopropylbenzoic acid], the IC50 was < 1 nM. In the case of `N#Cc1cc(NS(=O)(=O)c2cc(C(=O)O)ccc2C2CC2)c(OC2CCC2O)cc1Cl` (single isomer, unassigned) [Example 136, 3-(N-(4-chloro-5-cyano-2-(csi-2-hydroxycyclobutoxy)phenyl)sulfamoyl)-4-cyclopropylbenzoic acid], the IC50 is reported as < 1 nM. With `COC1CCC1Oc1cc(Cl)c(C#N)cc1NS(=O)(=O)c1cc(C(=O)O)ccc1C1CC1` (racemic) [Example 137, 3-(N-(4-chloro-5-cyano-2-(cis-2-methoxycyclobutoxy)phenyl)sulfamoyl)-4-cyclopropylbenzoic acid] the IC50 was < 1 nM. For `CC1CCC1Oc1cc(Cl)c(C#N)cc1NS(=O)(=O)c1cc(C(=O)O)ccc1C1CC1` (single isomer, unassigned) [Example 121, 3-(N-(4-chloro-5-cyano-2-(2-methylcyclobutoxy)phenyl)sulfamoyl)-4-cyclopropylbenzoic acid], the IC50 was < 1 nM. For `N#Cc1cc(NS(=O)(=O)c2cc(C(=O)O)ccc2C2CC2)c(OC2CCC23CCC3)cc1Cl` (stereo not drawn) [Example 77, 3-(N-(4-chloro-5-cyano-2-(spiro[3.3]heptan-1-yloxy)phenyl)sulfamoyl)-4-cyclopropylbenzoic acid], the IC50 was < 1 nM. For `N#Cc1cc(NS(=O)(=O)c2cc(C(=O)O)ccc2C2CC2)c(OC2CCCC2)cc1F` [Example 11, 3-(N-(5-cyano-2-(cyclopentyloxy)-4-fluorophenyl)sulfamoyl)-4-cyclopropylbenzoic acid], the IC50 was < 1 nM. `N#Cc1cc(NS(=O)(=O)c2cc(C(=O)O)ccc2C2CC2)c(OC2CCC2)cc1Cl` [Example 12, 3-(N-(4-chloro-5-cyano-2-cyclobutoxyphenyl)sulfamoyl)-4-cyclopropylbenzoic acid] was tested, and the IC50 was < 1 nM. For `N#Cc1cc(NS(=O)(=O)c2cc(C(=O)O)ccc2C2CC2)c(OC2CCCC2(F)F)cc1Cl` (stereo not drawn) [Example 83, 3-(N-(4-chloro-5-cyano-2-((2,2-difluorocyclopentyl)oxy)phenyl)sulfamoyl)-4-cyclopropylbenzoic acid], the IC50 was < 1 nM. With `CC1CCC1Oc1cc(Cl)c(C#N)cc1NS(=O)(=O)c1cc(C(=O)O)ccc1C1CC1` (single isomer, unassigned) [Example 120, 3-(N-(4-chloro-5-cyano-2-(2-methylcyclobutoxy)phenyl)sulfamoyl)-4-cyclopropylbenzoic acid] the IC50 was < 1 nM. With `N#Cc1cc(NS(=O)(=O)c2cc(C(=O)O)ccc2C2CC2)c(OC2CCC23CC3)cc1Cl` (stereo not drawn) [Example 56, 3-(N-(4-chloro-5-cyano-2-(spiro[2.3]hexan-4-yloxy)phenyl)sulfamoyl)-4-cyclopropylbenzoic acid] the IC50 was < 1 nM. For `N#Cc1cc(NS(=O)(=O)c2cc(C(=O)O)ccc2C2CC2)c(OC2CCC(C#N)C2)cc1Cl` (racemic) [Example 72, 3-(N-(4-chloro-5-cyano-2-((trans-3-cyanocyclopentyl)oxy)phenyl)sulfamoyl)-4-cyclopropylbenzoic acid], the IC50 was < 1 nM. In the case of `N#Cc1cc(NS(=O)(=O)c2cc(C(=O)O)ccc2C2CC2)c(OC2CCCC2F)cc1Cl` (racemic) [Example 86, 3-(N-(4-chloro-5-cyano-2-((trans-2-fluorocyclopentyl)oxy)phenyl)sulfamoyl)-4-cyclopropylbenzoic acid], the IC50 is reported as < 1 nM. Compound `N#Cc1cc(NS(=O)(=O)c2cc(C(=O)O)ccc2C2CC2)c(OCC2CC(F)(F)C2)cc1Cl` [Example 31, 3-(N-(4-chloro-5-cyano-2-((3,3-difluorocyclobutyl)methoxy)phenyl)sulfamoyl)-4-cyclopropylbenzoic acid] has an IC50 of 1 to 5 nM. In the case of `N#Cc1cc(NS(=O)(=O)c2cc(C(=O)O)ccc2C2CC2)c(OC2CCC3(CC3)C2)cc1Cl` (stereo not drawn) [Example 64, 3-(N-(4-chloro-5-cyano-2-(spiro[2.4]heptan-5-yloxy)phenyl)sulfamoyl)-4-cyclopropylbenzoic acid], the IC50 is reported as < 1 nM. For `N#Cc1cc(NS(=O)(=O)c2cc(C(=O)O)ccc2C2CC2)c(OCC23C4C5C6C4C2C6C53)cc1Cl` (stereo not drawn) [Example 79, 3-(N-(4-chloro-2-(cuban-1-ylmethoxy)-5-cyanophenyl)sulfamoyl)-4-cyclopropylbenzoic acid], the IC50 was < 1 nM. For `CC1CCCC1Oc1cc(Cl)c(C#N)cc1NS(=O)(=O)c1cc(C(=O)O)ccc1C1CC1` (single isomer, unassigned) [Example 100, 3-(N-(4-chloro-5-cyano-2-((trans-2-methylcyclopentyl)oxy)-phenyl)sulfamoyl)-4-cyclopropylbenzoic acid], the IC50 was < 1 nM. For `N#Cc1cc(NS(=O)(=O)c2cc(C(=O)O)ccc2C2CC2)c(O[C@H]2C[C@H](O)C2)cc1Cl` [Example 96, 3-(N-(4-chloro-5-cyano-2-(trans-3-hydroxycyclobutoxy)phenyl)sulfamoyl)-4-cyclopropylbenzoic acid], the IC50 was < 1 nM. Work on `N#Cc1cc(NS(=O)(=O)c2cc(C(=O)O)ccc2C2CC2)c(OC2CCC23CCC3)cc1Cl` (single isomer, unassigned) [Example 91, 3-(N-(4-chloro-5-cyano-2-(spiro[3.3]heptan-1-yloxy)phenyl)sulfamoyl)-4-cyclopropylbenzoic acid] yielded an IC50 of 1 to 5 nM. In the case of `N#Cc1cc(NS(=O)(=O)c2cc(C(=O)O)ccc2C2CC2)c(OC2CCC23CC3)cc1Cl` (single isomer, unassigned) [Example 106, 3-(N-(4-chloro-5-cyano-2-(spiro[2.3]hexan-4-yloxy)phenyl)-sulfamoyl)-4-cyclopropylbenzoic acid], the IC50 is reported as < 1 nM.

From US12692223B2, “Phenyl-sulfamoyl-benzoic acid derivatives as ERAP1-modulators” (GREY WOLF THERAPEUTICS LIMITED, priority 2021, dated 2026)
